Measurements: patent US10106558B2, “Azolobenzazine compounds, compositions comprising these compounds and their use for controlling invertebrate pests” (BASF SE, priority 2015, dated 2018)
Where two headings read alike, the source gives them in different places.

Tests used:
Assay type in all cases: in vivo
[1] = test system: yellow fever mosquito (Aedes aegypti); test: whole plant or invertebrate; details: 48 h, larval mortality visually assessed after 2 days, read-out: mortality in comparison with untreated controls
Description: Example B1: Action on Yellow Fever Mosquito (Aedes aegypti)
For evaluating control of yellow fever mosquito (Aedes aegypti) the test unit consisted of 96-well-microtiter plates containing 200 μl of tap water per well and 5-15 freshly hatched A. aegypti larvae.
The active compounds were formulated using a solution containing 75% (v/v) water and 25% (v/v) DMSO. Different concentrations of formulated compounds or mixtures were sprayed onto the insect diet at 2.5 μl, using a custom built micro atomizer, at two replications.
After application, microtiter plates were incubated at 28+1° C., 80+5% RH for 2 days. Larval mortality was then visually assessed.

[2] = test system: boll weevil (Anthonomus grandis); test: Action on boll weevil, eggs on insect diet in 96-well microtiter plates; details: 120 h, read-out: mortality in comparison with untreated controls
Description: Example B3: Action on Boll Weevil (Anthonomus grandis)
For evaluating control of boll weevil (Anthonomus grandis) the test unit consisted of 96-well-microtiter plates containing an insect diet and 5-10 A. grandis eggs.
(§1) The compounds were formulated using a solution containing 75% v/v water and 25% v/v DMSO. Different concentrations of formulated compounds were sprayed onto the insect diet at 5 μl, using a custom built micro atomizer, at two replications.
After application, microtiter plates were incubated at about 25±1° C. and about 75±5% relative humidity for 5 days. Egg and larval mortality was then visually assessed.

[3] = test system: Mediterranean fruitfly (Ceratitis capitata); test: Action on Mediterranean fruitfly, eggs on insect diet in microtiter plates; details: 120 h, egg and larval mortality visually assessed after 5 days, read-out: mortality in comparison with untreated controls
Description: Example B5: Action on Mediterranean Fruitfly (Ceratitis capitata)
For evaluating control of Mediterranean fruitfly (Ceratitis capitata) the test unit consisted of microtiter plates containing an insect diet and 50-80 C. capitata eggs.
as §1
After application, microtiter plates were incubated at about […] and about 80+5% relative humidity for 5 days. Egg and larval mortality was then visually assessed.

[4] = test system: tobacco budworm (Heliothis virescens); test: Action on tobacco budworm, eggs on insect diet in 96-well microtiter plates; details: 120 h, egg and larval mortality visually assessed after 5 days, read-out: mortality in comparison with untreated controls
Description: Example B6: Action on Tobacco Budworm (Heliothis virescens)
For evaluating control of tobacco budworm (Heliothis virescens) the test unit consisted of 96-well-microtiter plates containing an insect diet and 15-25 H. virescens eggs.
The compounds were formulated using a solution containing 75% v/v water and 25% v/v DMSO. Different concentrations of formulated compounds were sprayed onto the insect diet at 10 μl, using a custom built micro atomizer, at two replications.
After application, microtiter plates were incubated at about 28±1° C. and about 80±5% relative humidity for 5 days. Egg and larval mortality was then visually assessed.

[5] = test system: Orchid Thrips (Dichromothrips corbetti); test: Action on orchid thrips, floral-immersion technique; details: adult thrips, 72 hours after treatment, read-out: mortality in comparison with untreated controls
Description: Example B2: Action on Orchid Thrips (Dichromothrips Corbetti)
Dichromothrips corbettiadults used for bioassay were obtained from a colony maintained continuously under laboratory conditions. For testing purposes, the test compound is diluted in a 1:1 mixture of acetone:water (vol:vol), plus Kinetic® HV at a rate of 0.01% v/v.
Thrips potency of each compound was evaluated by using a floral-immersion technique. All petals of individual, intact orchid flowers were dipped into treatment solution and allowed to dry in Petri dishes. Treated petals were placed into individual re-sealable plastic along with about 20 adult thrips. All test arenas were held under continuous light and a temperature of about 28° C. for duration of the assay. After 3 days, the numbers of live thrips were counted on each petal. The percent mortality was recorded 72 hours after treatment.

[6] = test system: Diamond Back Moth (Plutella xylostella); test: Action on diamond back moth, dipped cabbage leaves; details: 3rd instar larvae, 72 hours after treatment, read-out: mortality in comparison with untreated controls
Description: Example B9: Action on Diamond Back Moth (Plutella xylostella)
The active compound is dissolved at the desired concentration in a mixture of 1:1 (vol:vol) distilled water:acetone. Surfactant (Kinetic® HV) is added at a rate of 0.01% (vol/vol). The test solution is prepared at the day of use.
Leaves of cabbage were dipped in test solution and air-dried. Treated leaves were placed in petri dishes lined with moist filter paper and inoculated with ten 3rd instar larvae. Mortality was recorded 72 hours after treatment. Feeding damages were also recorded using a scale of 0-100%.

[7] = test system: Southern Armyworm (Spodoptera eridania), 2nd instar larvae; test: Action on southern armyworm 2nd instar larvae, sprayed lima bean plants; details: 96 h, 4 days after treatment, read-out: mortality in comparison with untreated controls
Description: Example B10: Action on Southern Armyworm (Spodoptera eridania), 2nd Instar Larvae
The active compounds were formulated by a Tecan liquid handler in 100% cyclohexanone as a 10,000 ppm solution supplied in tubes. The 10,000 ppm solution was serially diluted in 100% cyclohexanone to make interim solutions. These served as stock solutions for which final dilutions were made by the Tecan in 50% acetone:50% water (v/v) into 10 or 20 ml glass vials. A nonionic surfactant (Kinetic®) was included in the solution at a volume of 0.01% (v/v). The vials were then inserted into an automated electrostatic sprayer equipped with an atomizing nozzle for application to plants/insects.
Lima bean plants (variety Sieva) were grown 2 plants to a pot and selected for treatment at the 1st true leaf stage. Test solutions were sprayed onto the foliage by an automated electrostatic plant sprayer equipped with an atomizing spray nozzle. The plants were dried in the sprayer fume hood and then removed from the sprayer. Each pot was placed into perforated plastic bags with a zip closure. About 10 to 11 armyworm larvae were placed into the bag and the bags zipped closed. Test plants were maintained in a growth room at about 25° C. and about 20-40% relative humidity for 4 days, avoiding direct exposure to fluorescent light (24 hour photoperiod) to prevent trapping of heat inside the bags. Mortality and reduced feeding were assessed 4 days after treatment, compared to untreated control plants.

[8] = 800 ppm, egg and larval mortality visually assessed after 5 days

Cc1cccc(C)c1NC(=S)N/N=C/c1ccc2c(ccc3c2ncn3-c2ccc(OC(F)(F)F)cc2)n1 [Compound C-1, 1-(2,6-dimethylphenyl)-3-[(E)-[3-[4-(trifluoromethoxy)phenyl]imidazo[4,5-f]quinolin-7-yl]methyleneamino]thiourea]
≥ 75%: mortality at 800 ppm [1] | mortality at 800 ppm [2, 8] | mortality at 800 ppm [3] | mortality at 800 ppm [4]

Cc1cccc(C)c1N1C(=O)CS/C1=N\N=C\c1ccc2c(ccc3c2ncn3-c2ccc(OC(F)(F)F)cc2)n1 [Compound C-2, (2Z)-3-(2,6-dimethylphenyl)-2-[(E)-[3-[4-(trifluoromethoxy)phenyl]imidazo[4,5-f]quinolin-7-yl]methylenehydrazono]thiazolidin-4-one]
≥ 75%: mortality at 800 ppm [1] | mortality at 500 ppm [5] | mortality at 800 ppm [2, 8] | mortality at 800 ppm [3] | mortality at 800 ppm [4] | mortality at 500 ppm [6] | mortality at 500 ppm [7]

Cc1cccc(C)c1/N=C1\SCC(=O)N1/N=C/c1ccc2c(ccc3c2ncn3-c2ccc(OC(F)(F)F)cc2)n1 [Compound C-7, (2Z)-2-(2,6-dimethylphenyl)imino-3-[(E)-[3-[4-(trifluoromethoxy)phenyl]imidazo[4,5-f]quinolin-7-yl]methyleneamino]thiazolidin-4-one]
≥ 75%: mortality at 800 ppm [1] | mortality at 500 ppm [5] | mortality at 800 ppm [2, 8] | mortality at 800 ppm [3] | mortality at 800 ppm [4] | mortality at 500 ppm [6] | mortality at 500 ppm [7]

CC1CCC(C(C)C)C(OC(=O)Nc2ccc3c(ccc4c3ncn4-c3ccc(OC(F)(F)F)cc3)n2)C1 (stereo not drawn) [Compound C-12, (2-isopropyl-5-methyl-cyclohexyl) N-[3-[4-(trifluoromethoxy)phenyl]imidazo[4,5-f]quinolin-7-yl]carbamate]
≥ 75%: mortality at 800 ppm [2]

CC(C)c1ccccc1NC(=S)N/N=C/c1cnc2c(ccc3c2ncn3-c2ccc(OC(F)(F)F)cc2)c1 [Compound C-13, 1-(2-isopropylphenyl)-3-[(E)-[3-[4-(trifluoromethoxy)phenyl]imidazo[4,5-h]quinolin-7-yl]methyleneamino]thiourea]
≥ 75%: mortality at 800 ppm [2, 8] | mortality at 800 ppm [3] | mortality at 800 ppm [4] | mortality at 500 ppm [6] | mortality at 500 ppm [7]

Cc1cccc(C)c1NC(=S)N/N=C/c1cnc2c(ccc3c2ncn3-c2ccc(OC(F)(F)F)cc2)c1 [Compound C-14, 1-(2,6-dimethylphenyl)-3-[(E)-[3-[4-(trifluoromethoxy)phenyl]imidazo[4,5-h]quinolin-7-yl]methyleneamino]thiourea]
≥ 75%: mortality at 800 ppm [1] | mortality at 500 ppm [5] | mortality at 800 ppm [2, 8] | mortality at 800 ppm [3] | mortality at 800 ppm [4] | mortality at 500 ppm [6]

Cc1cccc(C)c1N1C(=O)CS/C1=N\N=C\c1cnc2c(ccc3c2ncn3-c2ccc(OC(F)(F)F)cc2)c1 [Compound C-15, (2Z)-3-(2,6-dimethylphenyl)-2-[(E)-[3-[4-(trifluoromethoxy)phenyl]imidazo[4,5-h]quinolin-7-yl]methylenehydrazono]thiazolidin-4-one]
≥ 75%: mortality at 800 ppm [1] | mortality at 500 ppm [5] | mortality at 800 ppm [2, 8] | mortality at 800 ppm [3] | mortality at 800 ppm [4] | mortality at 500 ppm [6] | mortality at 500 ppm [7]

CC(C)c1ccccc1N1CCCS/C1=N/N=C/c1ccc2c(ccc3c2ncn3-c2ccc(OC(F)(F)F)cc2)n1 [Compound C-22, (E)-3-(2-isopropylphenyl)-N-[(E)-[3-[4-(trifluoromethoxy)phenyl]imidazo[4,5-f]quinolin-7-yl]methyleneamino]-1,3-thiazinan-2-imine]
≥ 75%: mortality at 800 ppm [1] | mortality at 500 ppm [5] | mortality at 800 ppm [2, 8] | mortality at 800 ppm [3] | mortality at 800 ppm [4] | mortality at 500 ppm [6]

CC(C)c1ccccc1NC(=S)N/N=C/c1cc2ccc3c(ncn3-c3ccc(OC(F)(F)F)cc3)c2cn1 [Compound C-24, 1-(2-isopropylphenyl)-3-[(E)-[3-[4-(trifluoromethoxy)phenyl]imidazo[4,5-h]isoquinolin-7-yl]methyleneamino]thiourea]
≥ 75%: mortality at 800 ppm [2, 8] | mortality at 800 ppm [3] | mortality at 800 ppm [4] | mortality at 500 ppm [6] | mortality at 500 ppm [7]

Cc1cccc(C)c1NC(=S)N/N=C/c1cc2ccc3c(ncn3-c3ccc(OC(F)(F)F)cc3)c2cn1 [Compound C-25, 1-(2,6-dimethylphenyl)-3-[(E)-[3-[4-(trifluoromethoxy)phenyl]imidazo[4,5-h]isoquinolin-7-yl]methyleneamino]thiourea]
≥ 75%: mortality at 800 ppm [2, 8] | mortality at 800 ppm [3] | mortality at 800 ppm [4] | mortality at 500 ppm [6]

CC(C)c1ccccc1N1C(=O)CS/C1=N\N=C\c1cc2ccc3c(ncn3-c3ccc(OC(F)(F)F)cc3)c2cn1 [Compound C-26, (2Z)-3-(2-isopropylphenyl)-2-[(E)-[3-[4-(trifluoromethoxy)phenyl]imidazo[4,5-h]isoquinolin-7-yl]methylenehydrazono]thiazolidin-4-one]
≥ 75%: mortality at 800 ppm [1] | mortality at 500 ppm [5] | mortality at 800 ppm [2, 8] | mortality at 800 ppm [3] | mortality at 800 ppm [4] | mortality at 500 ppm [6] | mortality at 500 ppm [7]

CC(C)c1ccccc1NC(=S)N/N=C/c1ccc2c(ccc3c2ncn3-c2ccc(OC(F)F)cc2)n1 [Compound C-31, 1-[(E)-[3-[4-(difluoromethoxy)phenyl]imidazo[4,5-f]quinolin-7-yl]methyleneamino]-3-(2-isopropylphenyl)thiourea]
≥ 75%: mortality at 500 ppm [5] | mortality at 500 ppm [6]

CC(C)c1ccccc1N1C(=O)CS/C1=N/N=C/c1ccc2c(ccc3c2ncn3-c2ccc(OC(F)F)cc2)n1 [Compound C-32, (2E)-2-[(E)-[3-[4-(difluoromethoxy)phenyl]imidazo[4,5-f]quinolin-7-yl]methylenehydrazono]-3-(2-isopropylphenyl)thiazolidin-4-one]
≥ 75%: mortality at 500 ppm [5] | mortality at 500 ppm [6]
